Patent publication US5273989A, “3,5-disubstituted 2-isoxazolines and isoxazoles, agents containing them and their use” (Hoechst Aktiengesellschaft, priority 1990, dated 1993)
Where a name gives a salt, the structure may show the parent alone. Read-outs that look alike come from different tables or passages of the source.

Columns and labels:
[1] = system: NMDA-induced cramps; assay: Inhibition of NMDA-induced cramps in the mouse; format: in vivo; conditions: po, 1 h; for inhibition in vivo at 0.3 mg/kg: 0.3 mg/kg p.o.
Procedure: 4. Inhibition of NMDA-induced-cramps in the mouse
The examples listed below show neuroprotective activity in that they antagonize the cramps induced by NMDA (N-methyl-(D)-aspartate). To this end, intravenous injections of 20-30 mg/kg of NMDA are carried out on a male NMRI (Naval Medical Research Institute) mice of 22-24 g body weight, which leads to stereotypes, clonic cramps and in the majority of cases to mortality. In order to investigate an NMDA-antagonist activity of the test substances, they are administered orally one hour before NMDA. The animals are then observed for the abovementioned symptoms for up to 60 min. The number of animals with clonic cramps and the incidence of mortality, expressed in percent change compared to the control group, is regarded as the evaluation criterion.

[2] = Toxicity (LD50) in the mouse; conditions: in vivo
From the text: As the examples investigated show considerable differences in toxicity compared to the standard substances, the LD50 values are also listed in Table 6,

[3] = system: high affinity 3H-D-aspartate absorption, synaptic vesicles (synaptosomes) from rat cortex; assay: "High affinity" absorption of 3H-aspartate in a vesicle preparation from rat brain; format: biochemical; conditions: for Stimulation of the 3H-D-aspartate absorption, Stimulation (%): relative to control values (100%)
Procedure: 1. "High affinity" absorption of ^3 H-aspartate in a vesicle preparation from rat brain.
Test principle: Fresh synaptic vesicles (synaptosomes) from rat cortex are incubated with buffer solution and ^3 H-D-aspartate and ^3 H-D-aspartate in the vesicles is measured. Preparations which in comparison to control synaptosomes increase the high affinity ^3 H-D-aspartate absorption and those which prevent the loss of ^3 H-D-aspartate by reliberation are regarded as particularly interesting.
Experimental protocol: The experiments for ^3 H-D-aspartate absorption were carried out by the method of Anand et al. (Biochem. Pharmacol., 35 (1986), 1055-1057). The synaptic vesicles were dissected out of cerebral cortex from male Sprague-Dawley rats. The preparations were tested at four concentrations as double samples in parallel with control samples containing buffer. The incubation medium (pH 7.4) contains: 1.2 mM KH2 PO4, 5 mM KCl, 5 mM pyruvate, 1.2 mM glucose, 1.2 mM MgCl2, 114 mM NaCl, 25 mM NaHCO3. For the non-specific ^3 H-D-aspartate absorption, NaCl was replaced by 114 mM choline chloride and NaHCO3 by 25 mM KHCO3. An aliquot of the vesicle suspension (about 25 μg/ml of test solution) was added to the test sample which was temperature controlled at 37° C. and aerated with Carbogen (5% CO2, 95% O2) and preincubated for 2 minutes. The three minutes incubation for the amino acid absorption was started by addition of 50 μl of ^3 H-D-aspartate (specific activity 25 Ci/mmol, 10 pmol/ml of test solution). The vesicles were separated from the incubation medium by filtration and additional washing of the adhering labeled amino acids using a Titertek cell harvester (Flow Laboratories, Meckenheim). The ^3 H-D-aspartate absorption was measured by means of a liquid scintillation counter (Canberra-Packard, Model 1500, Frankfurt).
The preparation activity is indicated in percent of the specific ^3 H-D-aspartate absorption, relative to control values (100%), in Table 3. Adenosine triphosphate (ATP) was used for comparison as the standard substance (see Table 3) and at 1 mM caused a 35% increase in the ^3 H-D-aspartate absorption.

[4] = system: CA1 pyramidal cells of the hippocampus after forebrain ischemia; assay: Neuroprotection after forebrain ischemia in the gerbil; conditions: for Cell necroses (% change) / Behavior score (% change): 15 minutes before ischemia; for Cell necroses (% change): histopathological score CA1, treated versus control group; for Behavior score (% change): treated versus control group
Procedure: A 5-minutes' ischemia of the forebrain with subsequent recirculation is produced in 20 male Mongolian gerbils under halothane anesthesia by bilateral closure of the corotid artery by means of aneurysm clips. 7 days later, the animals are decapitated under halothane anesthesia, the brains are fixed by immersion in Carnoy solution and the extent of neuron damage in the CA1 region of the hippocampus is determined "blind" with the aid of a 5-stage histopathological score. The test substance is administered intraperitoneally or orally 15 minutes before ischemia to each group of 10 gerbils. One ischemic control group, also of 10 animals, is treated with the respective solvents per test substance.

[5] = 50 mg/kg p.o., one hour before NMDA i.v., change compared to control group, read-out: Inhibition of convulsions
[6] = preparation concentration 500 μM
[7] = read-out: Inhibition of mortality
[8] = preparation concentration 10 μM
[9] = preparation concentration 1000 μM (1 mM)
[10] = preparation concentration 100 μM
[11] = one hour before NMDA i.v., change compared to control group, read-out: Inhibition of convulsions
[12] = one hour before NMDA i.v., change compared to control group, read-out: Inhibition of mortality

With `CC(C)[C@H]1CC[C@H](C)C[C@@H]1OC(=O)CCC1=NOC(CN)C1` (single isomer, unassigned; (+)) [Example 27, (+)-Menthyl 5-aminomethyl-2-isoxazoline-3-propionate toluene-4-sulfonate] as the compound, how does the inhibition in vivo at 50 mg/kg [1, 5] read?
Its inhibition in vivo at 50 mg/kg is 20%.

What about the LD50 ([2]; iv) of the same compound?
Its LD50 is 50 to 100 mg/kg.

For `N.N.O=C(O)CCc1cc(CNCc2cc(CCC(=O)O)no2)on1` [Example 26, Bis(3-[2-carboxyethyl]isoxazol-5-ylmethyl)amine diammonium salt], which inhibition in vivo at 50 mg/kg [1, 5] is on record?
The inhibition in vivo at 50 mg/kg was 40%.

And the LD50 ([2]; iv)?
Its LD50 is > 100 mg/kg.

Which “Stimulation of the 3H-D-aspartate absorption, Stimulation (%)” value (shortened to “Stimulation … (%)”) [3, 6] does the source give for `O=C(O)CCc1cc(CNCc2ccccc2)on1` [Example 14, 5-Benzylaminomethylisoxazole-3-propionic acid] here?
Its value is 19%.

What about the inhibition in vivo at 50 mg/kg [1, 5] of the same compound?
Its inhibition in vivo at 50 mg/kg is 40%.

And the LD50 ([2]; ip)?
The LD50 was > 300 mg/kg.

With `COC(=O)CCc1cc(C=NO)no1` [Example 55, methyl-3-hydroxyliminomethyl-isoxazole-5-propionate] as the compound, how does the inhibition in vivo at 50 mg/kg [1, 5] read?
Its inhibition in vivo at 50 mg/kg is 33%.

And the inhibition in vivo at 50 mg/kg [1, 7]?
The inhibition in vivo at 50 mg/kg was 100%.

Which inhibition in vivo at 50 mg/kg [1, 5] does the source give for `CC(C)[C@@H]1CC[C@@H](C)C[C@H]1OC(=O)CCC1=NOC(CN)C1` (single isomer, unassigned; (-)) [Example 28, (-)-Menthyl 5-aminomethyl-2-isoxazoline-3-propionate toluene-4-sulfonate] here?
Its inhibition in vivo at 50 mg/kg is 20%.

Which “Stimulation … (%)” value [3, 8] does the source give for `C[C@H]1C[C@@H](OC(=O)CCc2cc(C[N+](C)(C)C)on2)CC(C)(C)C1` (relative stereo) [Example 58, cis-(3,3,5)-trimethylcyclohexyl-5-trimethylammoniomethylisoxazole-3-propionate iodide] here?
Its value is 35%.

For `Cl.O=C(C1=NOC(CN2CCCC2)C1)N1CCCC1` (centres unmarked) [Example 3, 5-Pyrrolidinomethyl-3-pyrrolidinocarbonyl-2-isoxazoline hydrochloride], which “Stimulation … (%)” value [3, 6] is on record?
Its value is 20%.

Which inhibition in vivo at 30 mg/kg ([1]; 30 mg/kg p.o., one hour before NMDA i.v., change compared to control group, read-out: Inhibition of convulsions) does the source give for `CC(=O)NCc1cc(CCC(=O)O)no1` [Example 17, 5-Acetamidomethylisoxazole-3-propionic acid] here?
Its inhibition in vivo at 30 mg/kg is 30%.

And the inhibition in vivo at 30 mg/kg [1, 7]?
The inhibition in vivo at 30 mg/kg was 100%.

And the LD50 ([2]; ip)?
Its LD50 is > 300 mg/kg.

For `Cl.NCc1cc(CCC(N)=O)no1` [Example 50, 5-aminomethylisoxazole-3-propionamide hydrochloride], which “Stimulation … (%)” value [3, 6] is on record?
The value was 15%.

With `Nc1ncnc2c1ncn2[C@@H]1O[C@H](COP(=O)(O)OP(=O)(O)OP(=O)(O)O)[C@@H](O)[C@H]1O` [ATP, Adenosine triphosphate, reference compound] as the compound, how does the “activity on 3H-D-aspartate absorption (in words)” value ([3]; at a lower concentration than 500 μm) read?
Its value is “inactive”.

What about the “Stimulation … (%)” value [3, 6] of the same compound?
Its value is 31%.

And the “Stimulation … (%)” value [3, 9]?
The value was 35%.

What about the “Stimulation … (%)” value ([3]; preparation concentration 2000 μM) of the same compound?
The value was 57%.

And the “Stimulation … (%)” value ([3]; preparation concentration 5000 μM)?
The value was 121%.

What does the source list for `NCC1CC(CCC(=O)O)=NO1` (racemic) [Example 29, 5-Aminomethyl-2-isoxazoline-3-propionic acid, racemate]?
inhibition in vivo at 50 mg/kg [1, 5]: 20%; LD50 ([2]; iv): > 200 mg/kg

For `CC(C)(N)c1cc(CCC(=O)O)no1` [Example 13, 5-(1-Amino-1-methylethyl)isoxazole-3-propionic acid], which “Stimulation … (%)” value [3, 6] is on record?
Its value is 33%.

For `NCc1cc(CCC(=O)NCC(=O)O)no1` [Example 24, N-(5-Aminomethylisoxazol-3-yl)propionylglycine], which “Stimulation … (%)” value [3, 6] is on record?
The value was 28%.

With `NCC1CC(CCC(=O)O)=NO1` (single isomer, unassigned) [Example 31, 5-Aminomethyl-2-isoxazoline-3-propionic acid, (+)-enantiomer] as the compound, how does the “Stimulation … (%)” value [3, 6] read?
Its value is 21%.

Which results are given for `CCOP(C)(=O)CCc1cc(CN)on1` (centres unmarked) [Example 10, ethyl 2-(5-aminomethylisoxazole-3-yl)ethyl-2-(P-methyl)phosphinic acid hydrochloride]?
Stimulation of the 3H-D-aspartate absorption, Stimulation (%) [3, 6]: 23%; inhibition in vivo at 50 mg/kg [1, 5]: 10%; inhibition in vivo at 50 mg/kg ([1]; 50 mg/kg p.o., one hour before NMDA i.v., change compared to control group, read-out: Inhibition of mortality): 70%; LD50 ([2]; iv): > 100 mg/kg

What does the source list for `CC(=O)NCC1CC(CCC(=O)O)=NO1` (centres unmarked) [Example 32]?
Stimulation of the 3H-D-aspartate absorption, Stimulation (%) [3, 10]: 19%; inhibition in vivo at 50 mg/kg [1, 5]: 30%; inhibition in vivo at 50 mg/kg [1, 7]: 50%; LD50 ([2]; iv): > 100 mg/kg

For `C[C@]12N[C@H](Cc3ccccc31)c1ccccc12` [MK 801, (+)-5-methyl-10,11-dihydro-5H-dibenzo[a,d]cyclohept-5-en-10-imine, reference compound], which inhibition in vivo at 0.3 mg/kg [1, 11] is on record?
Its inhibition in vivo at 0.3 mg/kg is 60%.

What about the inhibition in vivo at 0.3 mg/kg [1, 12] of the same compound?
Its inhibition in vivo at 0.3 mg/kg is 60%.

What about the LD50 ([2]; iv) of the same compound?
Its LD50 is 30 to 60 mg/kg.

Which results are given for `CCOC(=O)CCc1cc(CN)on1.Cl` [Example 6, ethyl 5-aminomethylisoxazole-3-propionate hydrochloride]?
Stimulation of the 3H-D-aspartate absorption, Stimulation (%) [3, 8]: 17%; inhibition in vivo at 50 mg/kg [1, 5]: 20%; inhibition in vivo at 50 mg/kg [1, 7]: 40%; LD50 ([2]; iv): > 100 mg/kg

For `O=C(O)CCc1cc(CNC(=O)CCC[N+](=O)[O-])on1` [Example 53], which inhibition in vivo at 50 mg/kg [1, 5] is on record?
The inhibition in vivo at 50 mg/kg was 33%.

For `N=C(N)NCc1cc(CCC(=O)O)no1` [Example 23, 5-Guanidinomethylisoxazole-3-propionic acid], which inhibition in vivo at 50 mg/kg [1, 5] is on record?
Its inhibition in vivo at 50 mg/kg is 40%.

And the LD50 ([2]; ip)?
Its LD50 is > 300 mg/kg.

With `CN(C)Cc1cc(CCC(=O)O)no1` [Example 15, 5-Dimethylaminomethylizoxazole-3-propionic acid] as the compound, how does the inhibition in vivo at 50 mg/kg [1, 5] read?
The inhibition in vivo at 50 mg/kg was 40%.

What about the inhibition in vivo at 50 mg/kg [1, 7] of the same compound?
Its inhibition in vivo at 50 mg/kg is 100%.

What about the LD50 ([2]; iv) of the same compound?
Its LD50 is > 100 mg/kg.

For `C[C@H]1C[C@@H](OC(=O)CCc2cc(CN)on2)CC(C)(C)C1` (relative stereo) [Example 9, cis-(3,3,5)trimethylcyclohexyl 5-aminomethylisoxazole-3-propionate toluene-4-sulfonate], which “Stimulation … (%)” value [3, 10] is on record?
The value was 19%.

For `CN(C)C(=O)C1=NOC(CN)C1` (centres unmarked) [Example 39], which “Stimulation … (%)” value [3, 9] is on record?
Its value is 14%.

Which results are given for `NCc1cc(=O)[nH]o1` [Muscimol, 5-(aminomethyl)-3(2H)-isoxazolone, reference compound]?
inhibition in vivo at 0.3 mg/kg [1, 11]: 40%; inhibition in vivo at 0.3 mg/kg [1, 12]: 60%; LD50 ([2]; iv): 3 to 10 mg/kg; Cell necroses (% change) ([4]; 5 mg/kg i.p.): -74 % change; Behavior score (% change) ([4]; 5 mg/kg i.p.): +41 % change; post-ischemic neurological symptoms, behavior score (in words) ([4]; summary of Table 7): distinctly more negative post-ischemic symptoms in the behavior score; protection of cerebral nerve cells / dying cells (in words) ([4]; summary of Table 7): reduction in the dying cells

For `CP(=O)(O)CCc1cc(CN)on1` [Example 16, 2-(5-Aminomethylisoxazol-3-yl)ethyl-2-(-methyl)phosphinic acid hydrochloride], which “Stimulation … (%)” value [3, 9] is on record?
Its value is 19%.

What about the inhibition in vivo at 50 mg/kg ([1]; read-out: Inhibition of convulsions) of the same compound?
Its inhibition in vivo at 50 mg/kg is 30%.

What about the inhibition in vivo at 50 mg/kg [1, 7] of the same compound?
Its inhibition in vivo at 50 mg/kg is 30%.

And the “Cell necroses (% change)” value ([4]; 50 mg/kg p.o.)?
Its value is -27 % change.

What about the “Behavior score (% change)” value ([4]; 50 mg/kg p.o.) of the same compound?
The value was 0 % change.

Which “Stimulation … (%)” value [3, 6] does the source give for `Cl.NCc1cc(CCO)no1` [Example 25, 5-Aminomethyl-3-(2-hydroxyethyl)isoxazole hydrochloride] here?
The value was 20%.
